Data from paper PMC3997506, “Novel PPAR Pan Agonist, ZBH Ameliorates Hyperlipidemia and Insulin Resistance in High Fat Diet Induced Hyperlipidemic Hamster” (PLoS ONE, 2014).
pEC50, pKd: −log10 of the molar value.

What was measured:
hPPARα-LBD = biological target: T1, hPPARα-LBD (Homo sapiens, UniProt Q07869); assay: Ligand binding assay with SPR (Biacore T100); conditions: steady state affinity fitting
T1 construct: purchased Cayman chemical
T1 sequence (Q07869 239-466 limits assumed): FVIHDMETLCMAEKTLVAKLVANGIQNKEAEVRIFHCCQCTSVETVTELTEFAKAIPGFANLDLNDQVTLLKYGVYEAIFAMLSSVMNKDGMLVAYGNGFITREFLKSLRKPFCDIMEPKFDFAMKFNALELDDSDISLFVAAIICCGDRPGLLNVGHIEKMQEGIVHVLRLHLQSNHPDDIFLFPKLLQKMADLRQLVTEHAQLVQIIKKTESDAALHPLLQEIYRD
Procedure: (§1) The binding affinities of ZBH for PPARα-LBD, PPARδ-LBD or PPARγ-LBD (Cayman chemical, MI, USA) were assayed using SPR-based Biacore T100 (GE Healthcare/Biacore, Uppsala, Sweden) as described previously, [20].

hPPARγ-LBD = biological target: T2, hPPARγ-LBD (Homo sapiens, UniProt P37231); assay: Ligand binding assay with SPR (Biacore T100); conditions: steady state affinity fitting
T2 construct: purchased Cayman chemical
T2 sequence (P37231 238-503 limits assumed): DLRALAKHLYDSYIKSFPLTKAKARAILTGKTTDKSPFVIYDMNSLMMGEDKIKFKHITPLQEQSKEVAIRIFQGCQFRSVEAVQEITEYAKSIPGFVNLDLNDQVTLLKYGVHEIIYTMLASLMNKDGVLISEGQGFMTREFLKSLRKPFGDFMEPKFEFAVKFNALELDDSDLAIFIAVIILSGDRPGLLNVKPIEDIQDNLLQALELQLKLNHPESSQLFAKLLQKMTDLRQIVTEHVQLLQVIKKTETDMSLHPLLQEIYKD
Procedure: as §1

hPPARδ-LBD = biological target: T3, hPPARδ-LBD (Homo sapiens, UniProt Q03181); assay: Ligand binding assay with SPR (Biacore T100); conditions: steady state affinity fitting
T3 construct: purchased Cayman chemical
T3 sequence (Q03181 211-439 limits assumed): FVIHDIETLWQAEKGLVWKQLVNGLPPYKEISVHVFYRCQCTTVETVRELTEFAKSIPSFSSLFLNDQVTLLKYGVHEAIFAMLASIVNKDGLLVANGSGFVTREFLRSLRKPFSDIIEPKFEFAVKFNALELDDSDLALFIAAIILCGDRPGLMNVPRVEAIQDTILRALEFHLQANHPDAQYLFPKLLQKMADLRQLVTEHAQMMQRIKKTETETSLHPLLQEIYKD
Procedure: as §1

hPPARα = biological target: T4, hPPARα (Homo sapiens, UniProt Q07869); assay: In vitro transactivation assay, GAL4-hPPAR luciferase reporter in HEK-293 cells; assay type: cell-based
T4 sequence (Q07869 200-468 limits assumed): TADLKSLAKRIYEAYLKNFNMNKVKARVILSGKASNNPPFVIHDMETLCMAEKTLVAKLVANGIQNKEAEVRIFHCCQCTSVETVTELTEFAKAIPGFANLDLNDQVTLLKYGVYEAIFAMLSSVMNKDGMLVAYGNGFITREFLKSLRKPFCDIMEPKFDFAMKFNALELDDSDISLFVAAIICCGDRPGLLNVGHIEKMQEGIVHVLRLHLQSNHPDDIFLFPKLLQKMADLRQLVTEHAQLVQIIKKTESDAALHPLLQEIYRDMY
Procedure: Transactivation of PPARs was analyzed in a cell-based luciferase reporter assay using HEK-293 cells transiently transfected to express hPPAR-GAL4 chimeric receptors with plasmids GAL4-hPPAR α, γ, or δ, and pUAS (5x)-tk-luc receptor vector as previously described. 24 h after transfection, cells were treated with the indicated compounds, followed by the measurement of luciferase activity 24 h later. Mean values represent those obtained from at least three independent experiments performed in triplicate and normalized by the Renilla luciferase reading.
HEK-293 cells transiently transfected to express hPPAR-GAL4 chimeric receptors with plasmids GAL4-hPPAR α, γ, or δ, and pUAS (5x)-tk-luc receptor vector. 24 h after transfection, cells were treated with the indicated compounds at various concentrations followed by the measurement of luciferase activity 24 h after treatment. The results shown are the mean values obtained from at least three independent experiments performed in triplicate normalized by the Renilla luciferase reading.

[1] = stated in Introduction, no method given; cited from earlier work
Kunming mice = conditions: stated in Introduction, no method given; cited from earlier work
hyperlipidemic hamsters = assay: High fat diet induced hyperlipidemic hamster, 5-week oral treatment; assay type: in vivo, golden Syrian hamsters (Mesocricetus auratus)
Text: Male golden Syrian hamsters (Mesocricetus auratus) weighing 90–110 g were purchased from Vital River Laboratory Animal Technology Co. Ltd. (Beijing, China). Animals were maintained on a 12-h day/night schedule with ad libitum access to nutrition and water. […] Blood samples were taken after overnight fasting from the suborbital sinus under light sevoflurane anesthesia on the fifth and tenth day for measurement of serum total cholesterol (TC) and triglyceride (TG). […] The dose selection of ZBH was based on previous pilot study. Hamsters with standard rodent diet were used as normal control. Compounds were dissolved in DMSO and suspended in 0.5% methylcellulose and administered by gavage once a day for 5 weeks. Individual body weight and cage food consumption were measured every two days. Dynamic serum lipid monitoring was performed weekly and blood samples were taken from the retro-orbital venous plexus under light ether anesthesia using a glass capillary tube after overnight fasting. Then the animal were sacrificed by cervical decapitation under anesthesia, and the liver, heart, epididymal white adipose tissue (eWAT) and gastrocnemius muscle were excised, rapidly frozen in liquid nitrogen and maintained at −80°C until analysis. Serum TC, TG and free fatty acids (FFA) were measured by using commercial kit (Nanjing Jiancheng, Bioengineering Institute, Nanjing, China) as previously described. Serum glucose, low-density lipoprotein cholesterol (LDLc) and high-density lipoprotein cholesterol (HDLc) were measured with the Hitachi 917 automated biochemistry analyzer (Roche diagnostics, Indianapolis, USA). Serum insulin was quantified by ELISA using a hamster insulin assay kit (Crystal Chem Inc., IL, and USA). The insulin sensitivity index (ISI) was calculated by the values of fasting blood glucose (FBG) and fasting blood insulin (FBI). ISI = 1/(FBG×FBI) 1000 [21]. […] After evaporation of the chloroform under nitrogen, lipid samples were resuspended in isopropyl alcohol, and TG and TC content was determined by enzymatic assay. […] Frozen liver samples were used to perform hepatic lipid specific staining with Oil Red O staining.

In the case of `COc1ccc(/C=C/c2cc(OC)cc(OCCCC(C)(C)C(=O)O)c2)cc1` [ZBH, (E)-5-(3-methoxy-5-(4-methoxystyryl)phenoxy) -2,2-dimethylpentanoic acid], the pKd (hPPARα-LBD) was 6.08, the pKd (hPPARγ-LBD) was 5.41 and the pKd (hPPARδ-LBD) was 5.38. The “PPARα transactivation selectivity over other PPAR subtypes (EC50 fold)” value (hPPARα; Discussion) was 11 fold, the “maximal activation of PPARα” value (hPPARα; HEK-293) was “approximately 11 fold” and the pEC50 (hPPARα; HEK-293, 24 h treatment) was 5.76. The “PPARα activation potency (EC50) relative to bezafibrate” value (hPPARα; ZBH vs bezafibrate) was 21 fold, the “PPARα activation exceeds PPARγ activation” value (hPPARα; selectivity α over γ) was 14 fold and the “PPARα activation exceeds PPARδ activation” value (hPPARα; selectivity α over δ) was 11 fold. The oral bioavailability [1] was 67%, the “oral LD50” value (Kunming mice) was over 1200 mg/kg and the Kidney weight (hyperlipidemic hamsters; 6.25 mg/kg, 5 weeks) was 1.01 ± 0.08 g. The Liver weight (hyperlipidemic hamsters; 6.25 mg/kg, 5 weeks) was 7.78 ± 0.23 g, the “Retroperitoneal WAT” value (hyperlipidemic hamsters; 6.25 mg/kg, 5 weeks) was 13.93 ± 0.82 g and the “Subcutaneous WAT” value (hyperlipidemic hamsters; 6.25 mg/kg, 5 weeks) was 7.28 ± 0.32 g. The iBAT (hyperlipidemic hamsters; 6.25 mg/kg, 5 weeks) was 0.23 ± 0.01 g, the Kidney weight (hyperlipidemic hamsters; 12.5 mg/kg, 5 weeks) was 0.95 ± 0.09 g and the Liver weight (hyperlipidemic hamsters; 12.5 mg/kg, 5 weeks) was 7.77 ± 0.31 g. The “Retroperitoneal WAT” value (hyperlipidemic hamsters; 12.5 mg/kg, 5 weeks) was 12.63 ± 0.66 g, the “Subcutaneous WAT” value (hyperlipidemic hamsters; 12.5 mg/kg, 5 weeks) was 6.53 ± 0.42 g and the iBAT (hyperlipidemic hamsters; 12.5 mg/kg, 5 weeks) was 0.21 ± 0.01 g. The “maximum decrease in serum insulin levels” value (hyperlipidemic hamsters; 25 mg kg^−1, 5 weeks) was 84%, the “serum FFA” value (hyperlipidemic hamsters; 25 mg kg^−1, after one-week treatment until the end) was “lowered remarkably” and the Kidney weight (hyperlipidemic hamsters; 25 mg/kg, 5 weeks) was 0.94 ± 0.05 g. For the same molecule, the Liver weight (hyperlipidemic hamsters; 25 mg/kg, 5 weeks) was 8.52 ± 0.45 g, the “Retroperitoneal WAT” value (hyperlipidemic hamsters; 25 mg/kg, 5 weeks) was 10.43 ± 0.39 g and the “Subcutaneous WAT” value (hyperlipidemic hamsters; 25 mg/kg, 5 weeks) was 5.19 ± 0.12 g. For the same molecule, the iBAT (hyperlipidemic hamsters; 25 mg/kg, 5 weeks) was 0.19 ± 0.01 g, the “hepatic TG contents / hepatic steatosis” value (hyperlipidemic hamsters; 5 weeks, Figure 7) was “greatly lowered” and the “serum GOT, GPT, CK and creatinine levels” value (hyperlipidemic hamsters; 5 weeks, Figure S1) was “not altered”. For the same molecule, the “increase of the weight of the liver” value (hyperlipidemic hamsters; 6.25-25 mg/kg, after 5 weeks, vs MC) was 7%∼17, the “serum TG, TC and LDLc” value (hyperlipidemic hamsters; 12.5 or 25 mg kg^−1) was “time and dose-dependent decrease” and the “impact on food intake” value (hyperlipidemic hamsters; Figure 5B) was “negligible”. For the same molecule, the body weight gain (hyperlipidemic hamsters; ZBH 25 mg/kg, bezafibrate 50 mg/kg, Figure 5A) was “gained less weight” and the “increase in relative liver weight” value (hyperlipidemic hamsters; highest dose, relative to MC) was 17%.
